Patent US20140045858A1, “COMPOUND P[…] ALZHEIMER'S DISEASE AND PREPARATION METHOD THEREOF” (priority 2011, published 2014)

Experiments:
[1] = test system: rats' cholinergic and oxidative systems; assay: Pharmacodynamic study, overall conclusions (rat amnesia model); format: in vivo; details: conclusion from Groups 3, 6 and 7, single-component patches
Source text: Finally, the activities/contents of AChE, SOD, GSH-Px and MDA in Groups 3-5 approximate to those in the blank control group, that is to say, the levels of oxidase in rat's cholinergic and oxidative systems in the various delivery groups are close to normal level.

[2] = oral delivery; cited from earlier work

Row | SMILES | anti-oxidation effect [1] | function of anti-cholinergic damage [1] | half life (t½) [2]
1 | C/C=C1\[C@H]2C=C(C)C[C@]1(N)c1ccc(=O)[nH]c1C2 [huperzine A] | certain effect of anti-oxidation | certain function of anti-cholinergic damage | 
2 | Cc1nc(C)c(C)nc1C.O=P(O)(O)O [tetramethylpyrazine phosphate] | very strong anti-oxidation effect | relatively poor function of anti-cholinergic damage | 2.89 h
